The target of one data set is T1, human mGluR5d (Homo sapiens, UniProt P41594).
T1 construct: expressed in transfected cells
The data set is described as follows: FLIPR assay, functional assessment of mGluR5 antagonism (intracellular calcium mobilization). In kind it is cell-based. To be noted: cells expressing human mGluR5d; read-out: FLIPR hmGluR5d. The source says:
Functional Assessment of mGluR5 Antagonism in Cell Lines Expressing mGluR5D
The properties of the compounds of the invention can be analyzed using standard assays for pharmacological activity. Examples of glutamate receptor assays are well known in the art as described in for example Aramori et al., Neuron 8:757 (1992), Tanabe et al., Neuron 8:169 (1992), Miller et al., J. Neuroscience 15: 6103 (1995), Balazs, et al., J. Neurochemistry 69:151 (1997). The methodology described in these publications is incorporated herein by reference. Conveniently, the compounds of the invention can be studied by means of an assay (FLIPR) that measures the mobilization of intracellular calcium, [Ca^2+] in cells expressing mGluR5 or another assay (IP3) that measures inositol phosphate turnover.
Cells expressing human mGluR5d as described in WO97/05252 are seeded at a density of 100,000 cells per well on collagen coated clear bottom 96-well plates with black sides and experiments are done 24 h following seeding. […] The fluorescence signal is sampled 50 times at 1 second intervals followed by 3 samples at 5 second intervals immediately after each of the two additions. Responses are measured as the difference between the peak height of the response to agonist, less the background fluorescence within the sample period. […]
(A change in cytosolic calcium serves as a functional read-out for many receptors and channels.)

Data set [1] in a line: Determination of brain to plasma ratio in rat. The class given is in vivo. To be noted: brain and plasma, female Sprague Dawley rats, drug in brain over drug in plasma, read-out: Brain/Plasma Ratio of compound in Rat. Here is the method:
Brain to plasma ratios are estimated in female Sprague Dawley rats. The compound is dissolved in water or another appropriate vehicle. For determination of brain to plasma ratio the compound is administrated as a subcutaneous, or an intravenous bolus injection, or an intravenous infusion, or an oral administration. At a predetermined time point after the administration a blood sample is taken with cardiac puncture. The rat is terminated by cutting the heart open, and the brain is immediately retained. The blood samples are collected in heparinized tubes and centrifuged within 30 minutes, in order to separate the plasma from the blood cells. The plasma is transferred to 96-well plates and stored at −20° C. until analysis. The brains are divided in half, and each half is placed in a pre-tarred tube and stored at −20° C. until analysis. Prior to the analysis, the brain samples are thawed and 3 ml/g brain tissue of distilled water is added to the tubes. The brain samples are sonicated in an ice bath until the samples are homogenized. Both brain and plasma samples are precipitated with acetonitrile. After centrifugation, the supernatant is diluted with 0.2% formic acid. […] After reconstitution of the residuals the samples are ready for injection onto the HPLC column.

T1 sequence (P41594 21-942 isoform P41594-3 limits assumed): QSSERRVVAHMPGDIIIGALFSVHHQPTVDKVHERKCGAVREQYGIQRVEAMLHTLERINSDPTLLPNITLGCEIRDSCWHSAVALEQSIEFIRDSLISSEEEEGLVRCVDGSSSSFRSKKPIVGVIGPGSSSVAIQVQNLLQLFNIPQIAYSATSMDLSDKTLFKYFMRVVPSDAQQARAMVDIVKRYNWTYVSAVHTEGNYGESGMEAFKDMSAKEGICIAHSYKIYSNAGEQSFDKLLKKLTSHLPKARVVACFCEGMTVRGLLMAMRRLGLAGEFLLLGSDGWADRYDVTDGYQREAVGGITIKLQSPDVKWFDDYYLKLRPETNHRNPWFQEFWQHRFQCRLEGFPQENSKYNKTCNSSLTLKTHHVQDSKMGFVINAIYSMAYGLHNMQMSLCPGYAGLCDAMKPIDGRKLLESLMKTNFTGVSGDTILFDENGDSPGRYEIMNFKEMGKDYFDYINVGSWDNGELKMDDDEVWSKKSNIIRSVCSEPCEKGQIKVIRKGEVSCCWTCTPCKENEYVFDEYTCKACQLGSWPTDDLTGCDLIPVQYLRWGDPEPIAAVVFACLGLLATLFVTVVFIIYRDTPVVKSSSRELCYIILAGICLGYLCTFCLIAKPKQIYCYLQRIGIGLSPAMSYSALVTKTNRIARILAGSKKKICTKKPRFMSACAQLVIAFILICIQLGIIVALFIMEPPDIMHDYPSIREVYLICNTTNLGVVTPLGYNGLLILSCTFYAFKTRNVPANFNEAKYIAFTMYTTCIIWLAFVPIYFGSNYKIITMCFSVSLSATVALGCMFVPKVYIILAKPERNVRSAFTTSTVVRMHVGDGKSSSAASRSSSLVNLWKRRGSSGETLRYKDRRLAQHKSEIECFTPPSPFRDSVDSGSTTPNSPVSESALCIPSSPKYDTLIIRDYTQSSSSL

Regarding `COc1cc(-c2nnc(N3CCCCC3c3nnn(-c4cccc(C#N)c4)n3)n2C)ccn1` (stereo not shown) [Example 19.11, 3-(5-{1-[5-(2-Methoxy-pyridin-4-yl)-4-methyl-4H-[1,2,4]triazol-3-yl]-piperidin-2-yl}-tetrazol-2-yl)-benzonitrile], the IC50 on human mGluR5d was found to be 110 nM. Also, the Kp in data set [1] amounted to 0.06.
For `Cn1c(-c2cccnc2)nnc1N1CCCC[C@H]1c1nnn(-c2cccc(Cl)c2)n1` [Example 20.2, 3-(5-{(S)-2-[2-(3-Chloro-phenyl)-2H-tetrazol-5-yl]-piperidin-1-yl}-4-methyl-4H-[1,2,4]triazol-3-yl)-pyridine], in that order: 193 nM and 0.085.

Values taken from patent publication US20070259916A1, “mGluR5 modulators II” (AstraZeneca AB, priority 2006, published 2007).
